Results: the CheMixHub ionic liquid set

Experiment: xn = mol fraction of the nth substance listed
Conditions: for electrical conductivity: x1 = 0.0001802

CC(C)O + CS(=O)(=O)[O-].C[N+](C)(CCO)CCO
101 kPa, x2 = 0
Conditions	viscosity [mPa·s]
298.15 K	2.08
303.15 K	1.79
308.15 K	1.546
313.15 K	1.343
318.15 K	1.189
323.15 K	1.056

CCCCCCCCn1cc[n+](C)c1.F[B-](F)(F)F + NC(N)=O + O
298.15 K, 100 kPa
Conditions	viscosity [mPa·s]
x2 = 0, x3 = 0.9487	5.25
x2 = 0.008492, x3 = 0.9402	5.16
x2 = 0.01695, x3 = 0.9318	5.13
x2 = 0.03322, x3 = 0.9155	5.12
x2 = 0.0408, x3 = 0.9079	5.13

CC(C)O + CCCC[n+]1ccn(C)c1.F[B-](F)(F)F
101 kPa, x2 = 0
Conditions	viscosity [mPa·s]
293.15 K	2.42
298.15 K	2.08
303.15 K	1.8
308.15 K	1.56
313.15 K	1.36
318.15 K	1.19
323.15 K	1.05

[Cl-].[Li+] + CCCCCC[n+]1ccn(C)c1.N#C[S-] + CN1CCCC1=O
298.15 K, 101 kPa
Conditions	viscosity [mPa·s]
x2 = 0, x1 = 0.04156	2.626
x2 = 0, x1 = 0.07132	3.558
x2 = 0, x1 = 0.1038	4.959

CCCCC[N+](CC)(CC)CC.O=S(=O)([N-]S(=O)(=O)C(F)(F)F)C(F)(F)F + CCCCC[P+](CC)(CC)CC.O=S(=O)([N-]S(=O)(=O)C(F)(F)F)C(F)(F)F
101.3 kPa
Conditions	viscosity [mPa·s]
298.15 K, x1 = 0.6	123
303.15 K, x1 = 1	126
318.15 K, x1 = 0.2	39.5
338.15 K, x1 = 0.6	22.8
343.15 K, x1 = 1	23.3
348.15 K, x1 = 0.8	18.3
353.15 K, x1 = 0.2	13.1
353.15 K, x1 = 1	17.3

CCCC[n+]1ccn(C)c1.[Cl-] + O + CCCCCCCCCCCCCCCC[N+](C)(C)C.[Br-]
electrical conductivity [S/m], 100 kPa
Conditions	298 K	303 K	308 K	313 K	318 K
x3 = 8.8e-07	0.095	0.094	0.096	0.101	0.101
x3 = 1.79e-06	0.096	0.095	0.097	0.101	0.101
x3 = 2.67e-06	0.097	0.095	0.097	0.102	0.102
x3 = 3.56e-06	0.097	0.096	0.098	0.102	0.102
x3 = 4.42e-06	0.098	0.096	0.098	0.103	0.102
x3 = 5.31e-06	0.098	0.096	0.098	0.103	0.103
x3 = 6.17e-06	0.098	0.097	0.099	0.104	0.103
x3 = 7.02e-06	0.098	0.097	0.099	0.104	0.103
x3 = 7.87e-06	0.098	0.097	0.099	0.104	0.103
x3 = 8.72e-06	0.098	0.097	0.1	0.104	0.104
x3 = 9.57e-06	0.099	–	–	–	–
x3 = 1.04e-05	0.099	0.098	0.1	0.105	0.104
x3 = 1.124e-05	0.099	–	–	–	–
x3 = 1.206e-05	0.099	0.098	0.1	0.105	0.104
x3 = 1.289e-05	0.099	–	–	–	–
x3 = 1.37e-05	0.099	0.098	0.1	0.105	0.104
x3 = 1.451e-05	0.099	–	–	–	–
x3 = 1.532e-05	0.1	0.099	0.101	0.105	0.105
x3 = 1.612e-05	0.1	–	–	–	–
x3 = 1.691e-05	0.1	0.099	0.101	0.106	0.105
x3 = 1.77e-05	0.1	–	–	–	–
x3 = 1.848e-05	0.1	0.099	0.101	0.106	0.105
x3 = 1.928e-05	0.1	–	–	–	–
x3 = 2.005e-05	0.1	0.099	0.101	0.106	0.105
x3 = 2.081e-05	0.1	–	–	–	–
x3 = 2.159e-05	0.1	0.1	0.102	0.106	0.105
x3 = 2.234e-05	0.101	–	–	–	–
x3 = 2.31e-05	0.101	0.1	0.102	0.107	0.106
x3 = 2.386e-05	0.101	–	–	–	–
x3 = 2.46e-05	0.101	0.1	0.102	0.107	0.106
x3 = 2.534e-05	0.101	–	–	–	–
x3 = 2.608e-05	–	0.1	0.102	0.107	0.106
x3 = 2.754e-05	–	0.101	0.103	0.107	0.107
x3 = 2.9e-05	–	0.101	0.103	0.108	0.107
x3 = 3.043e-05	–	0.101	0.103	0.108	0.107
x3 = 3.184e-05	–	0.101	0.103	0.108	0.107
x3 = 3.324e-05	–	0.101	0.103	0.108	0.107
x3 = 3.462e-05	–	0.101	0.104	0.109	0.108
x3 = 3.599e-05	–	0.102	0.104	0.109	0.108
x3 = 3.732e-05	–	0.102	0.104	0.109	0.108
x3 = 3.866e-05	–	0.102	0.104	0.109	0.108
x3 = 3.998e-05	–	0.102	0.105	0.11	0.109

CC(C)O + CCCCCC[n+]1ccn(C)c1.O=[N+]([O-])[O-]
100 kPa, x2 = 0
Conditions	viscosity [mPa·s]
293.15 K	2.42
298.15 K	2.08
303.15 K	1.8
308.15 K	1.56
313.15 K	1.36
318.15 K	1.19
323.15 K	1.05
